Source: patent publication US6593480B2 (Abbott Laboratories, priority 1999, dated 2003)

How the values were obtained:
[1] = biological target: T1, Human glucocorticoid receptors (Homo sapiens, UniProt P04150); assay: Radioligand filter binding assay, displacement of 3(H)-dexamethasone from human glucocorticoid receptor cytosol; details: 1.7 μM test compound, inhibition of 3(H)-dex binding to hGR; for inhibition at 1.7 µM: read-out: GR BINDING (% Inhibition @ 1.7 μM)
T1 construct: made in house; host or cells: Sf9 insect cells, recombinant baculovirus (BAC-TO-BAC)
T1 sequence (P04150 1-777): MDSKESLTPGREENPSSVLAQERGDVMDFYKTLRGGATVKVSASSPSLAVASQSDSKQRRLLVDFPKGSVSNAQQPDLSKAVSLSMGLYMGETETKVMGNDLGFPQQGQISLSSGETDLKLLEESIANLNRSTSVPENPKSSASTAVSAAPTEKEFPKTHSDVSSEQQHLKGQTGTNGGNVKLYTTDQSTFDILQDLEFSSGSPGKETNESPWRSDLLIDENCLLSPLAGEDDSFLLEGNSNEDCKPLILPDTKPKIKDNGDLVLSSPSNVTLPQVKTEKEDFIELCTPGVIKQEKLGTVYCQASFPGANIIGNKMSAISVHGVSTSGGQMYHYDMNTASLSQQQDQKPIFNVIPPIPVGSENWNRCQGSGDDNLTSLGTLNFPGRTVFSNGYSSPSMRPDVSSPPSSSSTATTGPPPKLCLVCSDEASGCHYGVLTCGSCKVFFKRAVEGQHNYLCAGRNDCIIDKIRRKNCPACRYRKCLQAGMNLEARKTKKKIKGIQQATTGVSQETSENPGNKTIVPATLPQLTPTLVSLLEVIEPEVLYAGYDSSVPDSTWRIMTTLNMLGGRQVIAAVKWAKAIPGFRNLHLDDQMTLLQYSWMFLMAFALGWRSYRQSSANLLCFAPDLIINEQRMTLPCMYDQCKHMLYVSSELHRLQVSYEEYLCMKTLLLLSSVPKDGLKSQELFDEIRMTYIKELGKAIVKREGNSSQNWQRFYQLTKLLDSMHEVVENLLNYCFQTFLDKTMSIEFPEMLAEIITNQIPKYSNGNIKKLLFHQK
Experimental: Dexamethasone hereafter referred to as dex was purchased from SIGMA. […] Human glucocorticoid receptors were extracted from Sf9 cells infected with a recombinant baculovirus transfer vector containing the cloned hGR genes. […] The recombinant baculovi, uses expressing hGR were amplified and used to infect Sf9 cells. Infected cells were harvested 48 hrs post infection. […] The concentration of hGR in the extract was measured as specific ^3(H)-dex binding with the G25-assay as described in J. Steroid Biochem. Molec. […] The extract was aliquoted and stored at −70° C.
The filter binding assay: Dilution series of the test compounds and dex as reference were made from 10 mM (1 mM dex) stock solutions in DMSO. 10 μl of the dilutions was added in duplicates to the wells. The cell extracts were diluted 10 fold in EPMo +MTG buffer (1 mM EDTA, HPO4 20 mM (pH8), 6 mM MTG). […] 110 μl of the diluted ^3(H)-dex were added to the wells. The final concentration of hGR in the experiment was estimated to 1 nM. All preparations were made in ambient temperature (20-25° C.) on ice and with +4° C. temperated buffers. The plates were incubated over night at +4° C. (15-20hrs).
The incubation was stopped by filtration through GF/B filter on the Tomtec Cellharvester. The filtration on the Tomtec Cellharvester was programmed as follows: 1) Preparation before filtration with EP buffer (1 mM EDTA 20 mM HPO4 (pH8)) 2×(Wash/Asp 0.6 sec., Asp 0.5 sec.); 2) Prewet of GF/B filter with EP+PEI buffer (EP buffer, 0.3% Polyesthylenimine) (Asp 0.8 sec.). 3) Filtration/harvesting of the 96-well incubation plate 3×(Wash/Asp 0.6 sec., Asp 0.5 sec.). The GF/B filter was dried for at least 1 hr at 65° C. A MeltiLex scintillation wax was melted onto the filter with the Microsealer. The filter was placed in a samplebag, which was thereafter trimmed with scissors to fit the filter cassette. The cassette were placed in the Microbeta and measured for 1 min/position, returning ccpm (conrected counts per minute).
The Microbeta-instrument generates the mean cpm (counts per minute) value/minute and corrects for individual variations between the detectors thus generating corrected cpm values.

[2] = biological target: T2, progesterone receptor (PR) (Homo sapiens, UniProt P06401); assay: Radioligand binding assay with progesterone receptor cytosol (similar protocol)
T2 sequence (P06401 1-933): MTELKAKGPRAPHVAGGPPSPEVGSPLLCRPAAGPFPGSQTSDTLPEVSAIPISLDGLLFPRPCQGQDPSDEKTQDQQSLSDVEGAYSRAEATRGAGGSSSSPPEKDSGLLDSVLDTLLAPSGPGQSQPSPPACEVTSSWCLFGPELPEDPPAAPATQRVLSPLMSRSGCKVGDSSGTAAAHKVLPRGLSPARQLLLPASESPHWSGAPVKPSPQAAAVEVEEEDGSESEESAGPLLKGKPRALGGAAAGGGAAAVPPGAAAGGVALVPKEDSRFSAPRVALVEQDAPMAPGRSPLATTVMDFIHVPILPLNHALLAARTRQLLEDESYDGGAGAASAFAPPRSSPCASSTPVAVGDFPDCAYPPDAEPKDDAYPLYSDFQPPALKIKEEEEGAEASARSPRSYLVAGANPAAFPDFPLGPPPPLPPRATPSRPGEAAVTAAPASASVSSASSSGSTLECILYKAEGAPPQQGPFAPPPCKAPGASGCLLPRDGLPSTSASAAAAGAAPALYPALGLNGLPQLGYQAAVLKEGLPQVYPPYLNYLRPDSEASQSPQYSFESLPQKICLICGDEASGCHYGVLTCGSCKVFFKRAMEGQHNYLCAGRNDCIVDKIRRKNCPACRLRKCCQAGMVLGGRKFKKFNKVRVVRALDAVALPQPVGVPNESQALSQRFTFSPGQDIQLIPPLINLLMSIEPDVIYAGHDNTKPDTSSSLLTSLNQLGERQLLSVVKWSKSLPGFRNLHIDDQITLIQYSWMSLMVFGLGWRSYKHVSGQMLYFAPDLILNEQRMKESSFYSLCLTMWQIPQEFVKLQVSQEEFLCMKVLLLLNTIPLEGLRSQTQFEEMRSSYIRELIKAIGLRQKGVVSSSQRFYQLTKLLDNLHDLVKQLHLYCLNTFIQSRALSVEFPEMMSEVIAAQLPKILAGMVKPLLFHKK
Text: Methods for Radioligand Binding Studies with Human Glucocorticoid and Progesterone Receptor Cytosol
A similar protocol was employed to measure affinity of the compounds of the present invention for progesterone receptor (PR).

In the case of COc1cccc2c1-c1ccc(NS(C)(=O)=O)c(Br)c1C(c1ccccc1)O2 (stereo not drawn) [Example 2], the inhibition at 1.7 µM [1] is reported as 67.2% and the IC50 [2] is reported as > 10 µM.
Molecule COc1cccc2c1-c1ccc(NS(C)(=O)=O)cc1[C@H](c1ccccc1)O2 [Example 24, 6S-(1-methoxy-6-phenyl-6H-dibenzo(b,d)pyran-8-yl)methanesulfonamide] has an inhibition at 1.7 µM [1] of 88.9% and an IC50 [2] of 0.8 µM.
CS(=O)(=O)Nc1ccc2c(c1)C(c1ccccc1)Oc1cccc(OC(F)F)c1-2 (stereo not drawn) [Example 25, N-(1-difluoromethoxy-6-phenyl-6H-dibenzo[b,d]pyran-8-yl)methanesulfonamide] was tested, and the inhibition at 1.7 µM [1] was 92.7% and the IC50 [2] was 0.37 µM.
For C=CCOc1cccc(C2Oc3cccc(OC)c3-c3ccc(NS(C)(=O)=O)cc32)c1 (stereo not drawn) [Example 33, (1-methoxy-6-(3-allyloxy)phenyl-6H-dibenzo(b,d)pyran-8-yl)-methanesulfonamide], the inhibition at 1.7 µM [1] was 87.5% and the IC50 [2] was 5.49 µM.
In the case of COc1cccc2c1-c1ccc(NS(C)(=O)=O)cc1C(c1ccc(C#N)cc1)O2 (stereo not drawn) [Example 47], the inhibition at 1.7 µM [1] is reported as 94.5% and the IC50 [2] is reported as 3.48 µM.
COc1cccc2c1-c1ccc(NS(C)(=O)=O)cc1C(CCCCCCC#N)O2 (stereo not drawn) [Example 48] was tested, and the inhibition at 1.7 µM [1] was 90.8% and the IC50 [2] was > 10 µM.
COc1cccc2c1-c1ccc(NS(C)(=O)=O)cc1C(c1cccc(C)c1)O2 (stereo not drawn) [Example 86, N-[1-methoxy-6-(3-methylphenyl)-6H-benzo[c]chromen-8-yl]methanesulfonamide] gave an inhibition at 1.7 µM [1] of 90.4% and an IC50 [2] of 0.077 µM.
COCCCCOc1cccc(C2Oc3cccc(OC)c3-c3ccc(NS(C)(=O)=O)cc32)c1 (stereo not drawn) [Example 95, N-{1-methoxy-6-[3-(4-methoxybutoxy)phenyl]-6H-benzo[c]chromen-8-yl}methanesulfonamide] was tested, and the inhibition at 1.7 µM [1] was 90% and the IC50 [2] was > 1 µM.
In the case of COCCCc1ccc(C2Oc3cccc(OC)c3-c3ccc(NS(C)(=O)=O)cc32)s1 (stereo not drawn) [Example 138, N-{1-methoxy-6-[5-(3-methoxypropyl)-2-thienyl]-6H-benzo[c]chromen-8-yl}methanesulfonamide], the inhibition at 1.7 µM [1] is reported as 92.5% and the IC50 [2] is reported as 0.28 µM.
For COc1cccc2c1-c1ccc(NS(C)(=O)=O)cc1C(c1cccc(Oc3ccccc3)c1)O2 (stereo not drawn) [Example 139, N-[1-methoxy-6-(3-phenoxyphenyl)-6H-benzo[c]chromen-8-yl]methanesulfonamide], the inhibition at 1.7 µM [1] was 90.6% and the IC50 [2] was > 1 µM.
COc1cccc2c1-c1ccc(NS(C)(=O)=O)cc1C(c1cccc(N(C)S(=O)(=O)c3ccc(-c4ccon4)s3)c1)O2 (stereo not drawn) [Example 149, 5-(3-isoxazolyl)-N-(3-{1-methoxy-8-[(methylsulfonyl)amino]-6H-benzo[c]chromen-6-yl}phenyl)-N-methyl-2-thiophenesulfonamide] was tested, and the inhibition at 1.7 µM [1] was 69%.
CCOC(=O)CCCc1cccc(C2Oc3cccc(OC)c3-c3ccc(NS(C)(=O)=O)cc32)c1 (stereo not drawn) [Example 150, ethyl 4-(3-{1-methoxy-8-[(methylsulfonyl)amino]-6H-benzo[c]chromen-6-yl}phenyl)butanoate] was tested, and the inhibition at 1.7 µM [1] was 90.8%.
COc1cccc2c1-c1ccc(NS(C)(=O)=O)cc1C(c1cccc(CCCC(=O)O)c1)O2 (stereo not drawn) [Example 151, 4-(3-{1-methoxy-8-[(methylsulfonyl)amino]-6H-benzo[c]chromen-6-yl}phenyl)butanoic acid] gave an inhibition at 1.7 µM [1] of 69.5%.
For COc1cccc2c1-c1ccc(NS(C)(=O)=O)cc1C(c1ccc(Oc3ccc(Br)cc3)cc1)O2 (stereo not drawn) [Example 153], the “GR BINDING (% Inhibition @ 1.7 μM)” value [1] was 92.8% and the IC50 [2] was > 10 µM.
With “(1,2-methylenedioxy-6-phenyl-6H-dibenzo(b,d)pyran-8-yl)methanesulfonamide [Example 66]” the “GR BINDING (% Inhibition @ 1.7 μM)” value [1] was 91.6% and the IC50 [2] was 0.222 µM.
“(1-(2-propynyl)oxy-6-phenyl-6H-dibenzo(b,d)pyran-8-yl)methanesulfonamide [Example 45]” was tested, and the “GR BINDING (% Inhibition @ 1.7 μM)” value [1] was 91.2% and the IC50 [2] was 2.16 µM.
For “(1-cyano-6-phenyl-6H-dibenzo(b,d)pyran-8-yl)methanesulfonamide [Example 43]”, the “GR BINDING (% Inhibition @ 1.7 μM)” value [1] was 90.6% and the IC50 [2] was 0.73 µM.
In the case of “(1-difluoromethoxy-6-(4-(N-allyl-N-methylamino)phenyl)-6H-dibenzo(b,d)pyran-8-yl)-methanesulfonamide [Example 30]”, the “GR BINDING (% Inhibition @ 1.7 μM)” value [1] is reported as 85.6% and the IC50 [2] is reported as 1.28 µM.
“(1-difluoromethoxy-6-allyl-6H-dibenzo(b,d)pyran-8-yl)-methanesulfonamide [Example 31]” was tested, and the “GR BINDING (% Inhibition @ 1.7 μM)” value [1] was 90.0% and the IC50 [2] was 0.079 µM.
With “(1-ethynyl-6-phenyl-6H-dibenzo(b,d)pyran-8-yl)methanesulfonamide [Example 36]” the “GR BINDING (% Inhibition @ 1.7 μM)” value [1] was 95.0% and the IC50 [2] was 2.24 µM.
With “(1-methoxy-2-hydroxy-6-phenyl-6H-dibenzo(b,d)pyran-8-yl)methanesulfonamide [Example 65]” the “GR BINDING (% Inhibition @ 1.7 μM)” value [1] was 94.9% and the IC50 [2] was 2.84 µM.
In the case of “(1-methoxy-4-methyl-6-phenyl-6H-dibenzo(b,d)pyran-8-yl)methanesulfonamide [Example 68]”, the “GR BINDING (% Inhibition @ 1.7 μM)” value [1] is reported as 88.1% and the IC50 [2] is reported as > 10 µM.
With “(1-methoxy-6-(2-bromoprop-2-en-1-yl)-6H-dibenzo(b,d)pyran-8-yl)methanesulfonamide [Example 71]” the “GR BINDING (% Inhibition @ 1.7 μM)” value [1] was 89.5% and the IC50 [2] was 0.34 µM.
In the case of “(1-methoxy-6-(2-thienyl)-6H-dibenzo(b,d)pyran-8-yl)methanesulfonamide [Example 54]”, the “GR BINDING (% Inhibition @ 1.7 μM)” value [1] is reported as 94.1% and the IC50 [2] is reported as 0.45 µM.
“(1-methoxy-6-(3,4-dichlorophenyl)-6H-dibenzo(b,d)pyran-8-yl)methanesulfonamide [Example 63]” was tested, and the “GR BINDING (% Inhibition @ 1.7 μM)” value [1] was 98.5% and the IC50 [2] was 1.2 µM.
With “(1-methoxy-6-(3-carboethoxyphenyl)-6H-dibenzo(b,d)pyran-8-yl)methanesulfonamide [Example 51]” the “GR BINDING (% Inhibition @ 1.7 μM)” value [1] was 94.0% and the IC50 [2] was > 10 µM.
In the case of “(1-methoxy-6-(3-chloroprop-2-en-1-yl)-6H-dibenzo(b,d)pyran-8-yl)methanesulfonamide [Example 73]”, the “GR BINDING (% Inhibition @ 1.7 μM)” value [1] is reported as 88.3% and the IC50 [2] is reported as > 1 µM.
For “(1-methoxy-6-(3-cyanophenyl)-6H-dibenzo(b,d)pyran-8-yl)methanesulfonamide [Example 50]”, the “GR BINDING (% Inhibition @ 1.7 μM)” value [1] was 93.7% and the IC50 [2] was 1.05 µM.
In the case of “(1-methoxy-6-(3-fluorophenyl)-6H-dibenzo(b,d)pyran-8-yl)methanesulfonamide [Example 77]”, the “GR BINDING (% Inhibition @ 1.7 μM)” value [1] is reported as 90.4% and the IC50 [2] is reported as 0.48 µM.
For “(1-methoxy-6-(3-methoxyphenyl)-6H-dibenzo(b,d)pyran-8-yl)methanesulfonamide [Example 59]”, the “GR BINDING (% Inhibition @ 1.7 μM)” value [1] was 94.7% and the IC50 [2] was 2.11 µM.
“(1-methoxy-6-(4-carboethoxyphenyl)-6H-dibenzo(b,d)pyran-8-yl)methanesulfonamide [Example 52]” was tested, and the “GR BINDING (% Inhibition @ 1.7 μM)” value [1] was 92.2% and the IC50 [2] was > 10 µM.
For “(1-methoxy-6-(4-chlorobutyl)-6H-dibenzo(b,d)pyran-8-yl)methanesulfonamide [Example 57]”, the “GR BINDING (% Inhibition @ 1.7 μM)” value [1] was 94.9% and the IC50 [2] was 1.09 µM.
In the case of “(1-methoxy-6-(4-chlorophenyl)-6H-dibenzo(b,d)pyran-8-yl)methanesulfonamide [Example 61]”, the “GR BINDING (% Inhibition @ 1.7 μM)” value [1] is reported as 91.3% and the IC50 [2] is reported as 3.99 µM.
